US9233107B2, “Compositions and methods for the treatment of progressive multifocal leukoencephalopathy (PML)” (Biogen MA Inc., priority 2007, dated 2016)
Structures can show the parent of a compound that is named as a salt. Where two headings read alike, the source gives them in different places.

What was measured:
JCV = experiment: Anti-JCV activity of structural analogs (Tables 4 and 5); assay type: cell-based, JC polyomavirus (JCV)
JCV strain Mad1/SVEΔ = experiment: microbe, parasite or virus in culture; assay type: cell-based, JC polyomavirus (JCV); conditions: for inhibition at 10 µM / IC50: JC polyomavirus; for % Inhibition (total #JCV+) @10 uM: SV40 transformed glial cells, Mad-1/SVEΔ JCV; for % Inhibition (% JCV+) @10 uM: infection rate, JCV+ cells normalised to total cells
Method: (§1) SV40 transformed glial cells were seeded in 10% FBS media. The cells were seeded at 2000 cells per well in 75 μl of media per well. On day 2, the media was removed and replaced by 35 μl of a 1× concentrated drug aliquot combined with a 100× diluted JCV Turbo aliquot in 35 μl of 2% FBS media (JCV Turbo is a hybrid Mad-1/SVEΔ virus constructed by insertion of the regulatory region of SV40 into the regulatory region of the Mad-1 strain of JCV (Mad-1/SVE), Vacante et al., Virology 1989, 170: 353-361). The cells were incubated for an hour, after which another 65 uL aliquot of 1× concentrated drug in 2% FBS was added. On day 5 the cells were stained with DAPI (for total cell number) and with a mouse monoclonal antibody against SV40 VP1, which cross reacts with the JCV VP1 protein. […] The information is tabulated as % inhibition (as measured by the number and percentage of JCV positive cells).
(§2) JCV Infectivity Assay: SVG-A cells were seeded at 2,000 cells/well/0.075 ml of culture media in 96 flat-bottom well plate (Corning, N.Y.). The next day compounds were prepared in assay medium (2% heat-inactivated fetal bovine serum, 4 mM L-glutamine, 1×MEM). A master viral plate was prepared by mixing equal volumes of [2×] compound and [2×] diluted virus for the final 1× concentration of the compound and the virus. The plate containing cells was gently inverted and shaken to remove media. From the master plate, 0.035 ml compound/virus was added to designated wells. The cells were incubated with the compound/virus mixture for 60 minutes in a humidified 37° C. CO2 incubator. At that time final concentration of the drug in media was added to designated wells to bring the final volume up to 0.1 ml/well. The plates were incubated for an additional three days, the cells were then washed once with 1×PBS, and fixed in 2% paraformaldehyde/1×PBS for 30 minutes at room temperature. The fixative was removed and the cells were solubilized with 0.5% Triton X100 in PBS for an additional 30 minutes. Infection by Mad-1/SVEΔ virus was visualized by staining with PAB597, a monoclonal antibody against the major capsid protein VP1, the cells were incubated with 0.05 ml of PAB597 (2 μg/ml in 1×PBS) for 60 minutes at 37° C. Following a wash step with 1×PBS, primary antibody was detected with an Alexa-Fluor 488-labeled goat anti-mouse secondary antibody at 1:100 dilution in 1×PBS, cells were counterstained with DAPI at 1 μg/ml (0.05 ml/well) for 30 minutes at 37° C. Cells were washed with 1×PBS and 0.1 ml 1×PBS was added to cells. Field images of each well were acquired and analyzed using the Cellomics ArrayScan (Thermo Scientific Inc, Waltham, Mass.) using the Target Activation software. […] The cells are seeded at 4,000 cells/well/0.075 ml of culture media in 96 flat-bottom well plate (Corning). The culture media is used for the infection. The length of the infection is six to ten days (instead of the three days for SVG-A cells).
Calculations: The rate of JCV infection was calculated by normalizing the number of JCV infected cells by the total number of nucleated cells as % JCV^+ cells=((total # VP1^+ cells)/(total # DAPI^+ cells))*100%. The % of viral inhibition by a compound was calculated using a JCV infection rate instead of using total number of JCV infected cells (e.g., VP1^+ cells).

in vitro = conditions: human
Method: as §1, §2
(§3) The primary assay employed an SVG-A cell line and JCV Mad1/SVEΔ viral strain.

SVG-A cells = experiment: Total cell number (DAPI+ events) / cytotoxicity in the JCV infectivity assay; conditions: for inhibition at 10 µM: Homo sapiens, SVG-A, read-out: % Inhibition total Cell Number @10 uM; for % Inhibition total Cell Number @10 uM: cytotoxicity, DAPI count
Method: as §1, §2, §3

[1] = published PK data; cited from earlier work
[2] = Table 4, mefloquine functional fingerprint in silico screen compounds
[3] = Glial cell, read-out: % Inhibition (total #JCV+) @10 uM
[4] = SVG-A, read-out: % Inhibition (% JCV+) @10 uM

Structure (SMILES)	inhibition at 10 µM (JCV strain Mad1/SVEΔ; [3]) [%]	inhibition at 10 µM (JCV strain Mad1/SVEΔ; [4]) [%]	inhibition at 10 µM (SVG-A cells) [%]	other results
Nc1nc(OCC2CCCCC2)c2[nH]cnc2n1 [O6-Cyclohexylmethylguanine]	–	–	–	anti-JCV activity (JCV; [2]): Yes
COc1ccc([C@@H]2Sc3ccccc3N(CCN(C)C)C(=O)[C@@H]2OC(C)=O)cc1 [DILTIAZEM HYDROCHLORIDE]	20	24	-4	IC50 (JCV strain Mad1/SVEΔ; SVG-A): 8.5 µM; CC50 at 3 days (in vitro): > 40 µM
Nc1nccc2c1ncn2[C@@H]1O[C@H](CO)[C@@H](O)[C@H]1O [3-DEAZAADENOSINE]	–	–	–	anti-JCV activity (JCV; [2]): Yes
CC[C@@H](CO)Nc1nc(NCc2ccccc2)c2ncn(C(C)C)c2n1 (single isomer, unassigned) [ROSCOVITINE, (S)-ISOMER]	–	–	–	anti-JCV activity (JCV; [2]): Yes
CC1=C(/C=C/C(C)=C/C=C/C(C)=C\C(=O)O)C(C)(C)CCC1 [ISOTRETINOIN]	39	28	15	IC50 (JCV strain Mad1/SVEΔ; SVG-A): 4.4 µM; plasma Cmax [1]: 1.1 µg/mL
Nc1nc2c(ncn2[C@@H]2O[C@H](CO)[C@@H](O)[C@H]2O)c(=O)[nH]1 [GUANOSINE]	–	–	–	anti-JCV activity (JCV; [2]): No
Nc1ncnc2c1ncn2[C@@H]1O[C@H](CO)[C@@H](O)[C@H]1O [ADENOSINE]	–	–	–	anti-JCV activity (JCV; [2]): No
COc1cc(C)c2c(=O)c(-c3ccccc3)coc2c1 [METHOXYVONE]	38	27	15	IC50 (JCV strain Mad1/SVEΔ; SVG-A): 17.2 µM; CC50 (in vitro): > 40 µM
CC(=O)O[C@H]1CC[C@H]2[C@@H]3CCC4=C[C@@H](O)CC[C@@H]4[C@H]3CC[C@]12C [4-ESTREN-3-BETA, 17-BETA-DIOL 17-ACETATE]	–	–	–	anti-JCV activity (JCV; Table 5, fusidic acid analogs): Yes
CC(=O)O[C@H]1C[C@@]2(C)[C@@H](C[C@@H](O)[C@H]3[C@@]4(C)CC[C@@H](O)[C@@H](C)[C@@H]4CC[C@@]32C)/C1=C(\CCC=C(C)C)C(=O)O [FUSIDIC ACID]	39	40	-2	IC50 (JCV strain Mad1/SVEΔ; SVG-A): 8.6 µM; plasma Cmax [1]: 10 to 90 µg/mL
CCC(=O)Nc1ccc(Cl)c(Cl)c1 [PROPANIL]	12	21	-12	IC50 (JCV strain Mad1/SVEΔ; SVG-A): 7.8 µM; CC50 at 3 days (in vitro): > 40 µM
CC(=O)OC1CC2CC(O)CCC2(C)C2CC(OC(C)=O)C3(C)C(C(C)CC(=O)O)CCC3C12 (stereo not drawn) [23-NOR-5-BETA-CHOLANIC ACID-3-ALPHA, 7-ALPHA, 12-ALPHA-TRIOL 7,12-DIACETATE]	–	–	–	anti-JCV activity (JCV; Table 5, fusidic acid analogs): No
Cc1c(Cl)cccc1Nc1ccccc1C(=O)O [TOLFENAMIC ACID]	61	53	18	–
COc1ccc(-c2cc(=O)c3c(O)c(OC)c(OC)c(OC)c3o2)cc1OC [DEMETHYLNOBILETIN]	–	–	–	% Inhibition (total #JCV+) @10 uM (JCV strain Mad1/SVEΔ): 38%; % Inhibition (% JCV+) @10 uM (JCV strain Mad1/SVEΔ): 20%; % Inhibition total Cell Number @10 uM (SVG-A cells): 20%
O=c1cc(-c2ccccc2)oc2cccc(O)c12 [PRIMULETIN]	–	–	–	% Inhibition (total #JCV+) @10 uM (JCV strain Mad1/SVEΔ): 40%; % Inhibition (% JCV+) @10 uM (JCV strain Mad1/SVEΔ): 29%; % Inhibition total Cell Number @10 uM (SVG-A cells): 12%
Nc1ncnc2c1nc(Cl)n2[C@@H]1O[C@H](CO)[C@@H](O)[C@H]1O [8-CHLOROADENOSINE]	–	–	–	anti-JCV activity (JCV; [2]): Yes
CC(=O)OC(C)C1CCC2C3CC(O)C4CC(O)CCC4(C)C3CCC12C (stereo not drawn) [5-BETA-PREGNAN-3-ALPHA, 6-ALPHA, 20-ALPHA-TRIOL 20-ACETATE]	–	–	–	anti-JCV activity (JCV; Table 5, fusidic acid analogs): No
C[C@H](N)CO [L-ALANINOL]	–	–	–	% Inhibition (total #JCV+) @10 uM (JCV strain Mad1/SVEΔ): 13%; % Inhibition (% JCV+) @10 uM (JCV strain Mad1/SVEΔ): 31%; % Inhibition total Cell Number @10 uM (SVG-A cells): −23%
CC(=O)OC(C)C1CCC2C3CC(O)C4CC(O)CCC4(C)C3CCC12C (stereo not drawn) [5-BETA-PREGNAN-3-ALPHA, 6-ALPHA, 20-BETA-TRIOL 20-ACETATE]	–	–	–	anti-JCV activity (JCV; Table 5, fusidic acid analogs): Yes
Clc1ccc(COC(Cn2ccnc2)c2ccc(Cl)cc2Cl)c(Cl)c1 (stereo not shown) [MICONAZOLE NITRATE]	46	42	7	CC50 (SVG-A cells; read-out: TC50, inhibition of total cell numbers by 50%): 22.9 µM; plasma Cmax [1]: 0.01 µg/mL
C[C@@H]1CC[C@@]2(OC1)O[C@H]1C[C@H]3[C@@H]4CC[C@H]5C[C@@H](O)CC[C@]5(C)C4=CC[C@]3(C)[C@H]1[C@@H]2C [3beta-HYDROXYISOALLOSPIROST-9(11)-ENE]	–	–	–	% Inhibition (total #JCV+) @10 uM (JCV strain Mad1/SVEΔ): 25%; % Inhibition (% JCV+) @10 uM (JCV strain Mad1/SVEΔ): 21%; % Inhibition total Cell Number @10 uM (SVG-A cells): 3%
COc1ccc2cc(CCC(C)=O)ccc2c1 [NABUMETONE]	20	23	-2	–
C[C@H]1CC[C@]2(NC1)O[C@H]1C[C@H]3[C@@H]4CC[C@H]5C[C@@H](O[C@@H]6O[C@H](CO)[C@H](O[C@@H]7O[C@H](CO)[C@@H](O)[C@H](O[C@@H]8OC[C@@H](O)[C@H](O)[C@H]8O)[C@H]7O[C@@H]7O[C@H](CO)[C@@H](O)[C@H](O)[C@H]7O)[C@H](O)[C@H]6O)CC[C@]5(C)[C@H]4CC[C@]3(C)[C@H]1[C@@H]2C [TOMATINE]	40	29	12	–
O=C(O)c1cc([N+](=O)[O-])ccc1NCCCc1ccccc1 [5-NITRO-2-PHENYLPROPYLAMINOBENZOIC ACID]	–	–	–	% Inhibition (total #JCV+) @10 uM (JCV strain Mad1/SVEΔ): 14%; % Inhibition (% JCV+) @10 uM (JCV strain Mad1/SVEΔ): 21%; % Inhibition total Cell Number @10 uM (SVG-A cells): −9%
CC/C(=C(/CC)c1ccc(O)cc1)c1ccc(O)cc1 [DIETHYLSTILBESTROL]	42	29	18	–
CN(CCOc1ccc(CC2SC(=O)NC2=O)cc1)c1ccccn1 (stereo not shown) [ROSIGLITAZONE]	22	23	-1	–
NCCOB(c1ccccc1)c1ccccc1 [AMINOETHOXYDIPHENYLBORANE]	25	21	3	–
O=C(O)Cc1ccccc1Nc1c(Cl)cccc1Cl [DICLOFENAC SODIUM]	44	31	18	IC50 (JCV strain Mad1/SVEΔ; SVG-A): 8.3 µM; CC50 (SVG-A cells; human, 3 days): 30.5 µM
CC(=O)OC(C)C1CCC2C3CCC4=CC(O)CCC4(C)C3CCC12C (stereo not drawn) [4-PREGNEN-3-BETA, 20-BETA-DIOL 20-ACETATE]	–	–	–	anti-JCV activity (JCV; Table 5, fusidic acid analogs): Yes
O=c1cc(-c2ccc(O)cc2)oc2ccc(O)cc12 [6,4′-DIHYDROXYFLAVONE]	18	22	-5	–
